Results: publication PMC12413448, “Atomic resolution structures of the methane-activating enzyme in anaerobic methanotrophy reveal extensive post-translational modifications” (Nature Communications, 2025)

Columns and labels:
[1] = biological target: T1, MCR from ANME-2d^O (Methyl-Coenzyme M Reductase) (Candidatus Methanoperedens sp. BLZ2, UniProt Z9I9A7LEW2+Z9NDC8PKK5+Z9T835AYK6); assay: X-ray crystal structure, […] Å; type: binding; details: as isolated, trapped in active site; reduced thiol
T1 construct: native purification from bioreactor enrichment; (alpha beta gamma)2 dimer of heterotrimers; seven native PTMs including 3(S)-methylhistidine 159 on gamma; full length
T1 sequence (Z9T835AYK6 1-562): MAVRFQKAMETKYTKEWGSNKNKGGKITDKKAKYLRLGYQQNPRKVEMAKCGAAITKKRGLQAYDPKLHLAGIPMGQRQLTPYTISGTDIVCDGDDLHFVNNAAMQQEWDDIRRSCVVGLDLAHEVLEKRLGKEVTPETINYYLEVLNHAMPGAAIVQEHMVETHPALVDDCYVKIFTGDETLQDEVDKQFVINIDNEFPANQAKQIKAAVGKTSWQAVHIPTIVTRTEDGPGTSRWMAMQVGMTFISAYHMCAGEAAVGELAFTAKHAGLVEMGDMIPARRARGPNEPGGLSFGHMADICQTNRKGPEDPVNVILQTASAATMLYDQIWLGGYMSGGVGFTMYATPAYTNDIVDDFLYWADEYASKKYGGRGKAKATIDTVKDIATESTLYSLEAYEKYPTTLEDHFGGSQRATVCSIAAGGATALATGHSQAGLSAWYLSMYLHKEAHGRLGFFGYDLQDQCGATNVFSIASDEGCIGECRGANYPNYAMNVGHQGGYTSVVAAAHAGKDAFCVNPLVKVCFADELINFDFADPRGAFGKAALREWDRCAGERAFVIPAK
T1 sequence (Z9NDC8PKK5 1-434): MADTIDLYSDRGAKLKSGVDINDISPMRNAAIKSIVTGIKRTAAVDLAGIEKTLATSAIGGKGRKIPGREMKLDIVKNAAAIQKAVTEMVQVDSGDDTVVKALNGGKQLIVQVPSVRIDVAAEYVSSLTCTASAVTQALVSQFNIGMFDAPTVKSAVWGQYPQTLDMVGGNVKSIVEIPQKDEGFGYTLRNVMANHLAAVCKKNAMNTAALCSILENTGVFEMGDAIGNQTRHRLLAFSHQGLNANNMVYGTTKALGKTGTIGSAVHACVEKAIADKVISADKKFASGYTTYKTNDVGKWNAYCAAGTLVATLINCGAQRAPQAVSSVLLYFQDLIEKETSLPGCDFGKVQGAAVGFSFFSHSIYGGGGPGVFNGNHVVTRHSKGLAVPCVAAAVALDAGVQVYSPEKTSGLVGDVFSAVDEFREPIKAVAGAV
T1 sequence (Z9I9A7LEW2 1-249): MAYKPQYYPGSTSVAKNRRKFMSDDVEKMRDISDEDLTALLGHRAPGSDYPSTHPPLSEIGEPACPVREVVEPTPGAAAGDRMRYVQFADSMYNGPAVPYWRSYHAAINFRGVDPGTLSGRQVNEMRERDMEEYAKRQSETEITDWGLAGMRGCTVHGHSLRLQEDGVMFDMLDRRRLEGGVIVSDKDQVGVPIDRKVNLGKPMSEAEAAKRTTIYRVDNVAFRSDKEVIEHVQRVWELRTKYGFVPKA

[2] = biological target: T2, MCR from ANME-2d^V (Methyl-Coenzyme M Reductase) (Candidatus Methanoperedens sp., UniProt Z9LNO2W1Q3+Z9MSE7NHP1+Z9ZZ61DSW2); assay: X-ray crystal structure, […] Å; details: as isolated; mixture of ligands modelled in active site
T2 sequence (Z9MSE7NHP1 1-566): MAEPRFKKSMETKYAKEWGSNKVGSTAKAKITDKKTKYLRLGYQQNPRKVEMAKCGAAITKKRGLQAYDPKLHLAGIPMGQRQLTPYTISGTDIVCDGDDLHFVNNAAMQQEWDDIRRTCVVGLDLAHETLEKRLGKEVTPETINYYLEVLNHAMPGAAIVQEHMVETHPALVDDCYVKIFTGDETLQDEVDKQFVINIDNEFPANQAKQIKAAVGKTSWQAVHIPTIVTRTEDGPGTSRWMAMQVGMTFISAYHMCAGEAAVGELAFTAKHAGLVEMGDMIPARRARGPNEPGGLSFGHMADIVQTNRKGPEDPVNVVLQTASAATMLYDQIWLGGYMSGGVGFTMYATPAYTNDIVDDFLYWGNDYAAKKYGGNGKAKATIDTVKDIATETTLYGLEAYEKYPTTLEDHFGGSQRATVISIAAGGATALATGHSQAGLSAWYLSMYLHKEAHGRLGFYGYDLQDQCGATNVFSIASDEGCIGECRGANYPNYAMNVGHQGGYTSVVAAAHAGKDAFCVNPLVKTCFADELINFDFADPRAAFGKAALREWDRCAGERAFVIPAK
T2 sequence (Z9ZZ61DSW2 1-434): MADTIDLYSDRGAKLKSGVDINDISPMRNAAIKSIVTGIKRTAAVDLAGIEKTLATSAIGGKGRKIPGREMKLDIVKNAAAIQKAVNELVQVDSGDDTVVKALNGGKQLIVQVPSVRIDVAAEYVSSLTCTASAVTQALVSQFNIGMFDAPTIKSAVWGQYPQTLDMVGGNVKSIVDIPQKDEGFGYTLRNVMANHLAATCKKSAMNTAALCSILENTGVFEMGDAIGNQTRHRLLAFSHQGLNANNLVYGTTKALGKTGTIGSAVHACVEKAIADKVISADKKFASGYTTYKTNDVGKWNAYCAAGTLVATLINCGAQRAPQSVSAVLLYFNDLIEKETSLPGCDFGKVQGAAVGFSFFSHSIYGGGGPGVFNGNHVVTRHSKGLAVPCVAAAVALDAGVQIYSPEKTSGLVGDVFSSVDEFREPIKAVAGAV
T2 sequence (Z9LNO2W1Q3 1-249): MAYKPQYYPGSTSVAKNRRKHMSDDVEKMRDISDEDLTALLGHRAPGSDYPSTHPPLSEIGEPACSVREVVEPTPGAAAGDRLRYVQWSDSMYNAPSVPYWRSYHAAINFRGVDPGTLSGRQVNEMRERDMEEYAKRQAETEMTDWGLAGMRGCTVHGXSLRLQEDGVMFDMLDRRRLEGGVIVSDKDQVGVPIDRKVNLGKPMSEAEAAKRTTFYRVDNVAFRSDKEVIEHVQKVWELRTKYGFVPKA

Row | SMILES | X-ray crystal structure, 0.98 Å [1] | X-ray crystal structure, 0.98 Å [2]
1 | C[C@@H](OP(=O)(O)O)[C@H](NC(=O)CCCCCCS)C(=O)O [CoB-SH] | MCRs from ANME-2c and ANME-2d^O contain reduced coenzymes trapped in the active site | 
2 | O=S(=O)(O)CCS [CoM-SH] | MCRs from ANME-2c and ANME-2d^O contain reduced coenzymes trapped in the active site | optimal when the model included CoM-SH, CoB-SH, the heterodisulfide, and methyl-CoM
3 | C[C@@H](OP(=O)(O)O)[C@H](NC(=O)CCCCCCSSCCS(=O)(=O)O)C(=O)O [heterodisulfide] |  | optimal when the model included CoM-SH, CoB-SH, the heterodisulfide, and methyl-CoM
